The subject of data set [1] is ferric chloride induced thrombosis in rat carotid artery. Briefly: Ferric chloride induced thrombosis in rat carotid artery. The class given is in vivo.
In data set [2] the test system is ADP induced platelet aggregation. Description: Ex vivo platelet aggregation induced by 10 μM ADP. The class given is in vivo. The following applies: Rattus norvegicus, po, 72 h, clopidogrel 1 mg/kg, dosed orally for three days, read-out: inhibition of ADP induced platelet aggregation in platelet rich plasma. The procedure: (§1) In this experiment, the ability of Compound A to maintain vessel patency under arterial flow conditions in ferric chloride induced thrombosis in rat carotid artery is compared to that achieved by clopidogrel. Compound A was administered by intravenous infusions and clopidogrel was dosed orally for three days. Ex vivo platelet aggregation induced by 10 μM ADP and clotting times (prothrombin time, PT and activated partial thromboplastin times, aPTT) were measured over the experimental time course (90 min) in all animals.
This level of platelet inhibition is approximately equivalent to that attained by clopidogrel's effect on human platelets at the therapeutic dose in clinical use (75 mg per day). […] Time to occlusion was measured in animals that had vessel occlusion.

For data set [3], the system named is systolic and diastolic blood pressure. Briefly: Telemetry blood pressure in conscious beagle dogs, three way crossover. The class given is in vivo. The protocol:
The study design was a three way crossover with one week between doses to ensure complete elimination of residual agents from the dogs' circulatory system. […] Data acquisition and analysis was performed using LDS Life Science Suite Ponemah P3 plus V 4.20 software with results reported as 10 minute averages for each animal.
AUC was derived from the systolic and diastolic baseline. […] Negative values represent a decrease in blood pressure relative to the baseline value.

The test system of another data set is thrombin generation. Description: Thrombin generation assay in platelet rich plasma (PRP). The class given is biochemical, human. The following applies: ASA donors (aspirin for at least three days), 0 nM Compound A; normalized to Non-ASA at 0 nM. The protocol:
PRP and PPP were prepared by spinning the anticoagulated blood at ˜100×g or 1000×g for 20 minutes, respectively, at room temperature. Platelet counts in PRP were adjusted with homologous PPP to about 200,000 platelets/μL. For thrombin generation in 100 μL reaction mixture, 75 μL PRP was first mixed with CaCl2, convulxin, and Z-Gly-Gly-Arg-aminomethylcoumarin (Z-GGR-AMC, a thrombin fluorogenic substrate) for 3 minutes at 37° C., followed by adding tissue factor (Innovin, Dade Behring) to initiate the generation of thrombin. A typical reaction mixture contained 15 mM Ca^2+, 0.1 μg/mL convulxin, 100 μM Z-GGR-AMC, and 0.1 nM TF (tissue factor) (Innovin). Thrombin formation was monitored continuously at 37° C. by a fluorometric plate reader (Molecular Devices) measuring the relative fluorescence units (RFU). Inhibitors were pre-incubated with plasma for 20 minutes at room temperature before adding CaCl2 and convulxin.
Non-ASA represents result from donors free of aspirin. ASA represents results from donors taken aspirin for at least three days. % Inhibition was calculated by normalization of mean RFU (n=5) to Non-ASA at 0 nM Compound A.

In the next data set the test system is Interleukin 8. Description: Ex vivo cytokine release in human whole blood: interleukin 8. The class given is cell-based. The following applies: ASA treated donors, no Compound A (Control = 100.0).
In data set [4] the test system is collagen induced platelet aggregation. Briefly: Ex vivo platelet aggregation induced by 10 μg/mL of collagen. The class given is in vivo. The following applies: Rattus norvegicus. The protocol:
The combination effect of an anticoagulant and anti-platelet agent, aspirin, was investigated in an in vivo model of thrombosis. […] Ex vivo platelet aggregation induced by 10 μg/mL of collagen and clotting times (prothrombin time, PT and activated partial thromboplastin times, aPTT) were measured over the experimental time course (90 min) in all animals.

Data set [5] has as its system clotting times (prothrombin time, PT and activated partial thromboplastin times, aPTT). Briefly: Ex vivo clotting times (PT, aPTT) in the rat thrombosis model. To be noted: Compound A 0.03 μM, aspirin 3 mg/kg, or both. The protocol: as §1
as §1, with “The combination effect of an anticoagulant and anti-platelet agent, aspirin, was investigated in an in vivo model of thrombosis. […] In” for “In”, “aspirin.” for “clopidogrel.”, “aspirin” for “clopidogrel”, “administered as an intravenous bolus approximately 30 min prior to the start of the experiment.” for “dosed orally for three days.”, “μg/mL of collagen” for “μM ADP”

The test system of another data set is human whole blood. Briefly: Real time perfusion chamber: whole blood perfused over collagen and tissue factor coated surface. The class given is cell-based. To be noted: 2.4 μM eptifibatide alone (0 nM Compound A), shear rate 300 s^−1, five donors. The procedure: After the perfusion, the thrombotic activity was quantified by measurement of labeled fibrin produced as a result of fibrinogen cleavage during the activation of platelets and the blood coagulation system. For this series of experiments in five healthy human volunteers, blood was obtained by venipuncture and treated with 2.4 μM eptifibatide. The dose of eptifibatide corresponds to the plasma concentration attained by therapeutic concentrations of the GPIIb/IIIa inhibitor.

In a further data set the test system is pooled human plasma. Briefly: Ex vivo clotting assays (aPTT) in pooled human plasma. To be noted: 0.5 U/mL enoxaparin. The class given is biochemical.
The subject of data set [6] is venous thromboembolism (VTE). Briefly: Prospective randomized trial for prevention of venous thromboembolic events after total knee replacement. To be noted: Enoxaparin 30 mg bid subcutaneous, 10-14 days, n = 41.
Source text: Safety endpoints included the incidence of major and clinically significant nonmajor bleeds through the day after venography. All efficacy and bleeding endpoints were adjudicated by a blinded, independent central adjudication committee.
The mark [7] stands for this setting: Dog # 1, oral, Compound A 3 mg/kg, verapamil 10 mg/kg.
The mark [8] stands for this setting: Dog # 2, oral, Compound A 3 mg/kg, verapamil 10 mg/kg.
[9] abbreviates: Dog # 3, oral, Compound A 3 mg/kg, verapamil 10 mg/kg.
Setting [10] is: following verapamil or placebo administration ([…]), relative to baseline.
Setting [11] is: three dogs, oral, Compound A 3 mg/kg, verapamil 10 mg/kg.

Positions of bridges follow the written chain, without caps; N, C: chain ends. Non-standard residues stand in square brackets, D forms with d. Residues, ends and D or L forms follow the SMILES beside them. hArg = N=C(N)NCCCC[C@H](N)C(=O)O; Mpa = O=C(O)CCS Bounds are passed on as bounds.

The inhibition is how much of the control response was suppressed.

Procedure for Interleukin 8: An ex vivo assay system of human cytokine release was used to test whether inhibition of factor Xa should augment the effect of reduction of inflammation elicited by standard anti-inflammatory drugs, such as aspirin.
At the end of the activation period, blood samples were centrifuged at 13,000 rpm (15,000 g) for 5 min in an Eppendorf 5415G centrifuge. Plasma was removed, treated with protease inhibitor cocktail (Roche) and stored frozen at −80° C. Cytokines released from the blood cells were quantitated in a Multiplexed Biomarker Immunoassay for Luminex Instrumentation (Millipore USA).

With `COC(=O)[C@H](c1ccccc1Cl)N1CCc2sccc2C1` [Clopidogrel, reference compound], in data set [1] (clopidogrel 0.01 mg/kg (sub-therapeutic dose), oral), the “% Animals that did not occlude” value is on record as 10%. In addition, the “inhibition of rat thrombosis (animals that did not occlude)” value in data set [1] (clopidogrel 1 mg/kg, dosed orally for three days) came out at 89%. Besides, the inhibition at 1 mg/kg in [2] was 46%.
As for `COc1ccc(CCN(C)CCCC(C#N)(c2ccc(OC)c(OC)c2)C(C)C)cc1OC` (stereo not drawn) [Verapamil, reference compound], in [3] (setting [7]), the “Lowest Diastolic Blood Pressure Post-Dosing” value was found to be 65.11 mmHg and the “Lowest Systolic Blood Pressure Post-Dosing” value is reported as 137.18 mmHg. Moreover, in data set [3] (setting [8]), the “Lowest Diastolic Blood Pressure Post-Dosing” value turned out to be 62.47 mmHg and the “Lowest Systolic Blood Pressure Post-Dosing” value came to 111.90 mmHg. In addition, in data set [3] (setting [9]), the “Lowest Diastolic Blood Pressure Post-Dosing” value worked out at 51.94 mmHg and the “Lowest Systolic Blood Pressure Post-Dosing” value stood at 95.52 mmHg. The “decrease of diastolic blood pressure” value in data set [3] (Verapamil 10 mg/kg as a single agent, within one hour of oral administration) amounted to 33%. For the same compound, in data set [3] (setting [10]), the “Mean Area Under the Curve for Diastolic Pressure (AUCP), Mean ± S.D.” value is recorded as −3077.8 ± 1845.51 mmHg * min and the “Mean Area Under the Curve for Systolic Pressure (AUCP), Mean ± S.D.” value was −1133.6 ± 1134.7 mmHg * min. In addition, the “Mean Area Under the Curve for Diastolic Pressure (AUCP), Mean ± S.D.” value in data set [3] (following verapamil or placebo administration ([…]), relative to baseline, listed as verapamil) was −3079±1846 mmHg * min. In data set [3] (setting [11]), the “Lowest Diastolic Blood Pressure Post-Dosing, Mean ± S.D.” value is reported as 59.84 ± 6.97^1 mmHg and the “Lowest Systolic Blood Pressure Post-Dosing, Mean ± S.D.” value is given as 114.87 ± 20.99 mmHg.
`CC(=O)Oc1ccccc1C(=O)O` [aspirin, acetylsalicylic acid, reference compound]: in data set [1] (Compound A 0.03 μM iv infusion, aspirin 3 mg/kg iv bolus, or both), the “% DNO (inhibition of rat thrombosis)” value is 30%. Also, the “animals that did not occlude” value in [1] (aspirin 1.0 mg/kg iv bolus) turned out to be 10%. For the same compound, the “inhibition of rat thrombosis (animals that did not occlude)” value in data set [1] (aspirin 10 mg/kg iv bolus) came out at 33.3%. Moreover, the “TTO (Time to occlusion)” value in [1] (average for animals that occluded, Compound A 0.03 μM, aspirin 3 mg/kg, or both) was found to be 31.61 ± 10.91 min. Besides, the “DNO (did not occlude)” value in data set [1] (number of 10 animals, Compound A 0.03 μM iv infusion, aspirin 3 mg/kg iv bolus, or both) was 3. In the data set with thrombin generation, the “% Inhibition of thrombin generation” value stood at 21.5%. For the same compound, in the data set on Interleukin 8, the “Percent Release of IL8” value is 66.7%. For the same compound, the inhibition at 1 mg/kg in data set [4] (aspirin 1.0 mg/kg iv bolus) was under 2%. The inhibition at 3 mg/kg in [4] (aspirin 3 mg/kg iv bolus, read-out: inhibition of collagen induced platelet aggregation in platelet rich plasma) was found to be 35%. In data set [4] (aspirin 10 mg/kg iv bolus), the inhibition at 10 mg/kg worked out at 77%. Further, in data set [5], the “APTT Ratio” value worked out at 1.02 and the “PT ratio” value is recorded as 1.01.
Consider `N=C(N)NCCCC[C@@H]1NC(=O)CCSSC[C@@H](C(N)=O)NC(=O)[C@@H]2CCCN2C(=O)[C@H](Cc2c[nH]c3ccccc23)NC(=O)[C@H](CC(=O)O)NC(=O)CNC1=O` [eptifibatide, reference compound] ([Mpa][hArg]GDWPC-NH2; disulfide 1-7), for which the “Mean Fluorescence” value with human whole blood amounted to 118.0.
For Enoxaparin [reference compound], in the data set on pooled human plasma, the “activated partial thromboplastin time (aPTT)” value turned out to be 55 s. Besides, in [6], the VTE % amounted to 10%.

(Values after patent US8455440B2, “Combination anticoagulant therapy with a compound that acts as a factor Xa inhibitor” (Millennium Pharmaceuticals, Inc., priority 2007, dated 2013).)
